Experimental data as given in paper PMC4144712 (Biochemistry, 2014).

What was measured:
[1] = biological target: CXCR4 (Homo sapiens, UniProt P61073); test: CXCR4-FITC-DV1 competitive binding assay; settings: CHO-CXCR4 cells; 800 nM FITC-DV1
[2] = tested on: CCR5; test: Inhibition of FITC-DV1 binding in CCR5-expressing cell line; settings: data not shown
[3] = tested on: CCR3; test: Inhibition of FITC-DV1 binding in CCR3-expressing cell line; settings: data not shown

Chain of CXCR4 (P61073 whole entry): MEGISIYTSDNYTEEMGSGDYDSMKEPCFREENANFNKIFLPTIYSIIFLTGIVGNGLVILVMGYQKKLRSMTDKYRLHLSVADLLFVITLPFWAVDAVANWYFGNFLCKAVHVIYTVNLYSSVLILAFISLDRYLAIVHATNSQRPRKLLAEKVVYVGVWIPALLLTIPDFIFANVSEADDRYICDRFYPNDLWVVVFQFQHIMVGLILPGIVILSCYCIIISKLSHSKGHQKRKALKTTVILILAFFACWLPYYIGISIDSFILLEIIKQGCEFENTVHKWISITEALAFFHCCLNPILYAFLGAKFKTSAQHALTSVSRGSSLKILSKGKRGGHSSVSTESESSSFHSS

Compound	inhibition of the binding of FITC-DV1 to CXCR4 (in words) [1]	inhibition of the binding of FITC-DV1 in CCR5-expressing cell line [2]	inhibition of the binding of FITC-DV1 in CCR3-expressing cell line [3]
c1cc(CN2CCCNCCNCCCNCC2)ccc1CN1CCCNCCNCCCNCC1 [AMD3100]	inhibited the binding of FITC-DV1 to CXCR4		
RANTES: a common ligand of CCR5 and CCR3		Neither ubiquitin, a ligand of CXCR4, nor RANTES (a common ligand of CCR5 and CCR3) inhibited the binding of FITC-DV1	Neither ubiquitin, a ligand of CXCR4, nor RANTES (a common ligand of CCR5 and CCR3) inhibited the binding of FITC-DV1
